Assay results taken from patent publication US20260317319A1, “NOVEL ERGOLINES AND METHODS OF TREATING MOOD DISORDERS” (Gilgamesh Pharma Inc., priority 2023, published 2026).
Like-named read-outs stand apart in the source and are kept apart here.

Experiments:
5-HT2B receptor [1] = molecular target: T1, 5-HT2B receptor (Homo sapiens, UniProt P41595); assay: cell-based; format: cell-based; details: Ca2+ flux; for Emax: HEK293, agonist, HEK293, max dose, read-out: 5-HT2B % Act @ Max Dose; for EC50: agonist, HEK293
T1 construct: expressed in transfected cells; host or cells: HEK293, stably transfected
T1 sequence (P41595 whole entry): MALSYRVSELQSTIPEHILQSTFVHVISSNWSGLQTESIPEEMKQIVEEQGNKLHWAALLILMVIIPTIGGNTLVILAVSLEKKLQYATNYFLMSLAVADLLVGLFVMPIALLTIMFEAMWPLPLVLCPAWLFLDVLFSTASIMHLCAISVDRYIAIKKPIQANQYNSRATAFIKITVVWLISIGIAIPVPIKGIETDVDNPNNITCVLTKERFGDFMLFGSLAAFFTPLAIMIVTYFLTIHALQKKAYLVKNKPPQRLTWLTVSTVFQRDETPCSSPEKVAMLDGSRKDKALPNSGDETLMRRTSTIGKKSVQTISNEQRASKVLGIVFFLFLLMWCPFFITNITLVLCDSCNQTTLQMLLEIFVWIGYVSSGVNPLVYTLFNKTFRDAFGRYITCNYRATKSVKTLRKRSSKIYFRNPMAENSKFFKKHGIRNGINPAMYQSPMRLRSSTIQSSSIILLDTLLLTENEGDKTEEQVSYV
Method in brief: (§1)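 FLIPR Tetra fluorescence read-out of calcium flux after compound addition. Receptor-expressing stable lines were used (HEK293 for 2A/2B; CHO with Gα15 for 1A), dye-loaded with Fluo-4 Direct and 2.5 mM final probenecid, 50 min at 37 °C.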

5-HT1A receptor = molecular target: T2, 5-HT1A receptor (Homo sapiens, UniProt P08908); assay: cell-based; details: agonist, Ca2+ flux; for Emax: CHO, CHO cells with Gα15, max dose, read-out: 5-HT1A % Act @ Max Dose; for EC50: CHO cells with Gα15
T2 construct: expressed in transfected cells; host or cells: CHO cells, stably transfected
T2 sequence (P08908 1-422): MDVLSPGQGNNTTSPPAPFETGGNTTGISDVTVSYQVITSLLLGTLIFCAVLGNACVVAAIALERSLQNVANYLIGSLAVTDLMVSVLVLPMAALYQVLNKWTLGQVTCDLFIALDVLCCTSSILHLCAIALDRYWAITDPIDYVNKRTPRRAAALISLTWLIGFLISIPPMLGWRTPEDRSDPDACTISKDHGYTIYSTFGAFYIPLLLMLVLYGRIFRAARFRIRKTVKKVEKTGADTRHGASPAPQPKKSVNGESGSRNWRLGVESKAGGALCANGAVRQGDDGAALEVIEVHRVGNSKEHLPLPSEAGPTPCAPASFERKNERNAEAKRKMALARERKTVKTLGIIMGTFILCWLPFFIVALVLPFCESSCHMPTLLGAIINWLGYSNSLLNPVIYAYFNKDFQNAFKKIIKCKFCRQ
Method in brief: as §1

5-HT1B receptor = molecular target: T3, 5-HT1B receptor (Homo sapiens, UniProt P28222); assay: cAMP accumulation functional assay at 5-HT1B; format: cell-based; details: agonist, cAMP accumulation, max dose; read-out: 5-HT1B % Act @ Max Dose
T3 construct: expressed in transfected cells
T3 sequence (P28222 whole entry): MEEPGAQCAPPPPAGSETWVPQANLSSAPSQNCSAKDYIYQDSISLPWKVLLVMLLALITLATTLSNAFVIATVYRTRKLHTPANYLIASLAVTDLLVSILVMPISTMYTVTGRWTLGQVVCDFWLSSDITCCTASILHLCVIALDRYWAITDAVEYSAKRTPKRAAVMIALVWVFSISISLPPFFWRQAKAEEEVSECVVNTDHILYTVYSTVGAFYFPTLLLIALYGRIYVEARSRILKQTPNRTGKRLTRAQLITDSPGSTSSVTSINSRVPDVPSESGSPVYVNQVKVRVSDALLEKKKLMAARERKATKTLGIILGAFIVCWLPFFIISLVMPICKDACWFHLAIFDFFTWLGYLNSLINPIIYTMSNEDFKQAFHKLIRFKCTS
Method in brief: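 Agonist activity measured as cAMP accumulation in cells stably transfected with human 5-HT1B. Cells incubated 60 min at RT, then detection reagent added for a further 60 min at RT before plate reading.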

[2] = molecular target: T4, Alpha1A adrenergic receptor (Homo sapiens, UniProt P35348); assay: Ca2+ flux functional assay at Alpha1A; format: cell-based; details: agonist, Ca2+ flux, max dose; read-out: Alpha 1A % Act @ Max Dose
T4 construct: expressed in transfected cells
T4 sequence (P35348 1-466): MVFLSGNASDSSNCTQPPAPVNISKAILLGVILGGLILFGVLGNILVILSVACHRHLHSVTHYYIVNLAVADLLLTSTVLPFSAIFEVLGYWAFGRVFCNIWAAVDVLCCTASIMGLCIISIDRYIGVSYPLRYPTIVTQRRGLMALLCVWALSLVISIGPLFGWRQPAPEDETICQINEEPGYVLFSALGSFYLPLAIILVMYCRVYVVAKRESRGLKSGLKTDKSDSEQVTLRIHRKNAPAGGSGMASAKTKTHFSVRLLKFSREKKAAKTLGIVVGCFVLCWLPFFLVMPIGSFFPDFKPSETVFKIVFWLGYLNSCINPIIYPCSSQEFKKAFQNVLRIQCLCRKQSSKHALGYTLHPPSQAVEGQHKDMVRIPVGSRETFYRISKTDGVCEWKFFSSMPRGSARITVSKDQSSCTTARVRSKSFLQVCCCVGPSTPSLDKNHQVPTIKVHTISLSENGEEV
Method: Disclosed compounds were tested for agonist activity at several adrenergic (Alpha1A and Alpha2A) and dopamine (D1 and D2) receptor subtypes using Ca^2+ flux functional assays, with the results summarized in Table 6. Selectivity for the 5-HT2A receptor over these other targets varied depending on the specific target and compound.
(§2) Functional Assays at Adrenergic and Dopamine Receptors. Agonist activity at Alpha1A, Alpha2A, D1, and D2 receptors was determined using a FLIPR Ca^2+ flux assay at WuXi AppTec (Hong Kong) Limited according to their standard protocols. Briefly, stably transfected cells expressing the receptor of interest were grown and plated in a 384 well plate and incubated at 37° C. and 5% CO2 overnight. A solution of 250 mM probenecid in 1 mL FLIPR assay buffer was prepared fresh. This was combined with a fluorescent dye (Fluo-4 Direct™) to make a final assay concentration of 2.5 mM. Compounds were diluted 1:3.16 for 10 points and 750 nL was added to a 384 well compound plate using ECHO along with 30 μL assay buffer. The fluorescent dye was then added to the assay plate along with assay buffer to a final volume of 40 μL. The cell plate was incubated for 50 min at 37° C. and 5% CO2 and placed into the FLIPR Tetra along with the compound plate. 10 μL of references and compounds were then transferred from the compound plate into the cell plate and the fluorescent signal was read.

in vitro [3] = format: in vitro ADME, human; details: HLM 0.50 mg/mL, NADPH 1 mM, 1 μM compound, pH 7.4, 37° C., 60 min; for microsomal CLint / half-life: human, microsomes; for microsomal CLint: read-out: Intrinsic clearance (Clint); for half-life: read-out: half-life (t1/2)
in vitro [4] = format: in vitro ADME, mouse; details: MLM (male CD-1) 0.50 mg/mL, NADPH 1 mM, 1 μM compound, pH 7.4, 37° C., 60 min; for microsomal CLint / half-life: mouse, microsomes; for microsomal CLint: read-out: Intrinsic clearance (Clint); for half-life: read-out: half-life (t1/2)
Text: MLM Stability Pooled MLM from male CD-1 mice (BIOIVT M00501) were used.

in vitro [5] = format: in vitro ADME, rat; details: RLM (male Sprague-Dawley) 0.50 mg/mL, NADPH 1 mM, 1 μM compound, pH 7.4, 37° C., 60 min; for microsomal CLint / half-life: rat, microsomes; for microsomal CLint: read-out: Intrinsic clearance (Clint); for half-life: read-out: half-life (t1/2)
Text: RLM Stability Pooled RLM from male Sprague-Dawley rats (Xenotech R1000) were used.

5-HT2A receptor [6] = molecular target: T5, 5-HT2A receptor (Homo sapiens, UniProt P28223); assay: cell-based; format: cell-based; design: expressed in transfected cells; host or cells: HEK293, stably transfected; details: Ca2+ flux; for Emax: HEK293, agonist, HEK293, max dose, read-out: 5-HT2A % Act @ Max Dose; for EC50: agonist, HEK293
T5 sequence (P28223 whole entry): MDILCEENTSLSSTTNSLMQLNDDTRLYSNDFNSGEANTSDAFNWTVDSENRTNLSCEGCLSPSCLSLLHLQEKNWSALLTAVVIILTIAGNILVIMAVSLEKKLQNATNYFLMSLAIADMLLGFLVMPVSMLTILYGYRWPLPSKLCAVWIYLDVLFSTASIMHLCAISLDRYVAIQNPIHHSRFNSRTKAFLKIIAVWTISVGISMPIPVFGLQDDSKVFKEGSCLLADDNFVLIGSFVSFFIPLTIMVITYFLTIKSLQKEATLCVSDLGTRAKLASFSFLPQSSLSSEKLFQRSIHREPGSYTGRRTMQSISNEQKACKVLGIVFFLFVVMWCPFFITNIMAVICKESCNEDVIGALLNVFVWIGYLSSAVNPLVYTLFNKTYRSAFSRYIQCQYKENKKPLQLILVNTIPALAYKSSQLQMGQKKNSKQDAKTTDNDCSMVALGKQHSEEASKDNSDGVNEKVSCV
Method in brief: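 FLIPR Ca2+ flux agonist assay using stably transfected HEK293 (5-HT2A, 5-HT2B) or CHO cells co-expressing Gα15 (5-HT1A). Cells loaded with Fluo-4 Direct plus 2.5 mM probenecid (final) for 50 min at 37 °C, then compound added and fluorescence read.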

5-HT2B receptor [7] = molecular target: T1, 5-HT2B receptor; assay: 5-HT2B receptor radioligand binding ([3H]LSD); details: read-out: 5-HT2B Receptor Ki
5-HT2C receptor = molecular target: T6, 5-HT2C receptor (Homo sapiens, UniProt P28335); assay: Ca2+ flux functional assay at 5-HT2C (WuXi 5-HT2C protocol); format: cell-based; design: expressed in transfected cells; details: for Emax: agonist, tested using WuXi 5-HT2C protocol, max dose, read-out: 5-HT2C % Act @ Max Dose (* WuXi protocol)
T6 sequence (P28335 33-458): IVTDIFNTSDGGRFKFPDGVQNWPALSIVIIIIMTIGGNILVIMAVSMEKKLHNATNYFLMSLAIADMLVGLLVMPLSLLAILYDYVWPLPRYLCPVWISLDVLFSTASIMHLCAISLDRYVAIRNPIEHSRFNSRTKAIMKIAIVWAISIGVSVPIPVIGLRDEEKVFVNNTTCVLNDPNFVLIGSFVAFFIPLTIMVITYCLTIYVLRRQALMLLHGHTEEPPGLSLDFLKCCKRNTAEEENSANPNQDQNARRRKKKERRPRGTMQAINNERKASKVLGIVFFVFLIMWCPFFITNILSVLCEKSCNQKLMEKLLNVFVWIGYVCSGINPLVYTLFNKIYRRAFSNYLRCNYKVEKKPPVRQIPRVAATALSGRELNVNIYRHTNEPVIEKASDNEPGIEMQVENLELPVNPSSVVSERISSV
Method: Disclosed compounds were tested for agonist activity at several serotonin receptor subtypes (5-HT2A, […], 5-HT2C, and 5-HT1A) using Ca^2+ flux functional assays and the 5-HT1B receptor using a cAMP accumulation assay, with the results summarized in Table 4. […] Potent agonist activity was also observed at the other serotonin receptors tested, although the selectivity profile among the receptors varied across compounds. […] However, at the same time, the N-propyl compounds were more efficacious agonists at 5-HT2B than the corresponding N-methyl compounds. The selectivity of disclosed compounds for 5-HT2A over 5-HT2C and 5-HT1A was less predictable and varied widely across compounds. […] An azetidinyl amide substituent tended to increase potency at 5-HT1A relative to 5-HT2A.
as §2, with “5-HT2A, 5-HT2B,” for “Adrenergic”, “5-HT1A.” for “Dopamine Receptors.”, “5-HT2A, 5-HT2B, 5HT2C” for “Alpha1A, Alpha2A, D1,”, “5-HT1A” for “D2”, “interest and Gα15 in the case of 5-HT1A (HEK293 for 5-HT2A and 5-HT2B; CHO cells for 5-HT1A)” for “interest”

5-HT2A receptor [8] = molecular target: T5, 5-HT2A receptor; assay: biochemical; format: binding; design: expressed in transfected cells; host or cells: HEK293, stably transfected; details: [3H]ketanserin 1 nM; HEK293 stable cell line; 1 h, 25 °C
Method in brief: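 Affinity was measured in radioligand binding experiments using [^3H]ketanserin as the labelled ligand, following methods adapted from published procedures.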

CCN(CC)C(=O)[C@@H]1C=C2c3cccc4[nH]cc(c34)C[C@H]2N(CCC(F)(F)F)C1 [Compound 12, (6aR,9R)—N,N-diethyl-7-(3,3,3-trifluoropropyl)-4,6,6a,7,8,9-hexahydroindolo[4,3-fg]quinoline-9-carboxamide]
Emax (5-HT2B receptor [1]): 29.6% | Emax (5-HT1A receptor): 71.4% | Emax (5-HT1B receptor): 95.5% | Emax [2]: 2.08% | half-life (t1/2) (in vitro [3]): 13.5 min | half-life (t1/2) (in vitro [4]): 2.1 min | half-life (t1/2) (in vitro [5]): 5.9 min | Emax (5-HT2A receptor [6]): 78.7%

CCN(C)C(=O)[C@@H]1C=C2c3cccc4[nH]cc(c34)C[C@H]2N(Cc2cccc(OC)c2)C1 [Compound 92, (6aR,9R)—N-ethyl-7-(3-methoxybenzyl)-N-methyl-4,6,6a,7,8,9-hexahydroindolo[4,3-fg]quinoline-9-carboxamide]
Ki (5-HT2B receptor [7]): 1950 nM | Emax (5-HT2B receptor [1]): 0.48% | EC50 (5-HT2B receptor [1]): > 10000 nM | Emax (5-HT1A receptor): 21.6% | EC50 (5-HT1A receptor): > 100000 nM | microsomal CLint (in vitro [3]): 140 µL/min/mg | half-life (in vitro [3]): 9.9 min | microsomal CLint (in vitro [4]): 321 µL/min/mg | half-life (in vitro [4]): 4.3 min | microsomal CLint (in vitro [5]): 278 µL/min/mg | half-life (in vitro [5]): 5 min | EC50 (5-HT2C receptor): > 10000 nM | Emax (5-HT2C receptor): 12.5% | Ki (5-HT2A receptor [8]): 11.1 nM | Emax (5-HT2A receptor [6]): 53.8% | EC50 (5-HT2A receptor [6]): 793 nM

CN(C)C(=O)[C@@H]1C=C2c3cccc4[nH]cc(c34)C[C@H]2N(Cc2ccccc2)C1 [Compound 102, (6aR,9R)-7-benzyl-N,N-dimethyl-4,6,6a,7,8,9-hexahydroindolo[4,3-fg]quinoline-9-carboxamide]
Ki (5-HT2B receptor [7]): 170 nM | Emax (5-HT2B receptor [1]): 5.86% | EC50 (5-HT2B receptor [1]): > 10000 nM | Emax (5-HT1A receptor): 90.1% | EC50 (5-HT1A receptor): 26200 nM | microsomal CLint (in vitro [3]): 16.9 µL/min/mg | half-life (in vitro [3]): 82 min | microsomal CLint (in vitro [4]): 111 µL/min/mg | half-life (in vitro [4]): 12.5 min | microsomal CLint (in vitro [5]): 134 µL/min/mg | half-life (in vitro [5]): 10.3 min | EC50 (5-HT2C receptor): 685 nM | Emax (5-HT2C receptor): 76.6% | Ki (5-HT2A receptor [8]): 10.8 nM | Emax (5-HT2A receptor [6]): 65.2% | EC50 (5-HT2A receptor [6]): 155 nM

CCN(C)C(=O)[C@@H]1C=C2c3cccc4[nH]cc(c34)C[C@H]2N(CC2CCCC2)C1 [Compound 103, (6aR,9R)-7-(cyclopentylmethyl)-N-ethyl-N-methyl-4,6,6a,7,8,9-hexahydroindolo[4,3-fg]quinoline-9-carboxamide]
Ki (5-HT2B receptor [7]): 11.7 nM | Emax (5-HT2B receptor [1]): 5.54% | EC50 (5-HT2B receptor [1]): > 10000 nM | Emax (5-HT1A receptor): 122% | EC50 (5-HT1A receptor): 84400 nM | microsomal CLint (in vitro [3]): 121 µL/min/mg | half-life (in vitro [3]): 11.4 min | microsomal CLint (in vitro [4]): 277 µL/min/mg | half-life (in vitro [4]): 5 min | microsomal CLint (in vitro [5]): 185 µL/min/mg | half-life (in vitro [5]): 7.5 min | EC50 (5-HT2C receptor): > 10000 nM | Emax (5-HT2C receptor): 21.7% | Ki (5-HT2A receptor [8]): 1.6 nM | Emax (5-HT2A receptor [6]): 80.1% | EC50 (5-HT2A receptor [6]): 422 nM
